Test results published in patent US20140056898A1, “COMBINATION THERAPIES COMPRISING ANTI-ERBB3 AGENTS” (priority 2011, published 2014).
“Also recorded” adds a separate entry of the source.

Assays:
[1] = test system: BT474-M3 cells; assay: Spheroid in vitro tumor model assay, estrogen-stimulated; assay type: cell-based; conditions: estrogen-stimulated BT474-M3 spheroids, dose range, six days
Excerpt: Cells are continued to culture for six days.
Multicellular spheroids are used to simulate the growth and microenvironmental conditions of tumors in vitro.

[2] = test system: BT474-M3 cells; assay: Spheroid in vitro tumor model assay, heregulin-stimulated; assay type: cell-based; conditions: heregulin-stimulated BT474-M3 spheroids, dose range
Protocol: (§3) BT474-M3 wild type cells (2000 cells/well) are plated in Ultra Low Cluster 96-well plate (Costar). After overnight incubation, indicated treatments are introduced to the plate. Cells are continued to culture for six days. Spheroids are then examined by Nikon microscope and analyzed by MetaMorph Image Analysis Software (Molecular Devices). The spheroid size from cells cultured in medium containing 10% FBS is set as control.
(§4) The percent of spheroid growth inhibition (normalized to untreated, stimulated control) was determined for 1 μM doses of inhibitor treatment.

[3] = test system: BT474-M3 cells; assay: Spheroid in vitro tumor model assay, dual ligand (estrogen and heregulin)-stimulated; assay type: cell-based; conditions: estrogen and heregulin (dual ligand)-stimulated BT474-M3 spheroids, dose range
Protocol: as §3, §4

[4] = test system: BT474-M3 breast cancer xenograft; assay: BT474-M3 breast cancer xenograft efficacy study, MM-111 and lapatinib; assay type: in vivo, mice; conditions: from day 40 to day 7; MM-111 weekly, lapatinib daily at optimal efficacious dose
Protocol: Tumor xenografts are established by subcutaneous injection of BT474-M3 cells into the flank of 5-6 weeks old female athymic nude mice (nu/nu; Charles River Labs, Wilmington, Mass.). Mice receive a subcutaneous 60 day, slow-release estrogen implant in the opposite flank (0.72 mg pellet; Innovation Research of America, Sarasota, Fla.) 24 hours prior to the injection of cells.
The percent change in tumor volume from day 40 to day 7 (inoculation) was calculated for each group (FIG. 6b).

[5] = test system: ErbB3 phosphorylation (pErbB3); assay: Cell signaling assay, pErbB3 ELISA in heregulin-stimulated BT474-M3 cells; assay type: cell-based
Protocol: (§1) Cell lysates are probed for phospho-ErbB3 (pErbB3), and phospho-AKT (pAKT) by ELISA as described previously (Schoeberl et al, 2009). Inhibitor IC50 values are calculated by fitting dose-response data to a 4-parameter sigmoidal curve (GraphPad Prism®, GraphPad Software, Inc., La Jolla, Calif.).
The amount of pErbB3 was measured by ELISA using the methods described above or minor variations thereof. Model-generated dose-response curves overlay the experimental data (FIG. 7a). […] Untreated and heregulin-stimulated cells were probed for pErbB3 and pAKT and the IC50 was calculated (FIG. 7b).
(§2) CRL-1504™), cells were incubated with serial dilutions of either inhibitor for 15 minutes, 1 hour, 4 hours, and 24 hours followed by stimulation with 5 nM heregulin for 10 min. Amounts of pAKT and pErbB3 were measured by ELISA essentially as described.

[6] = test system: BT474-M3 cells; assay: Cell proliferation assay (CellTiter-Glo); assay type: cell-based; conditions: 24 hours
Protocol: Cells (8,000/well) are seeded into 96-well plates and incubated overnight. Inhibitor is added at doses indicated and cells are treated for 24 hours. For experiments with ligand stimulation, cells are serum-starved overnight prior to addition of inhibitor and 2 nM heregulin 1-[…] (R&D Systems, Minneapolis, Minn.) is added 1 hour post-inhibitor treatment in media containing 5% FBS. Numbers of viable cells are measured as an indicator of cell proliferation using the CellTiter-Glo® Luminescent Cell Viability Assay (Promega, Madison, Wis.).

[7] = test system: BT474-M3 cells; assay: Apoptosis assay (Annexin V / PI, FACS) in spheroids; assay type: cell-based; conditions: MM-111 100 nM, lapatinib 33 nM; for Percent cell population: Early apoptosis: Annexin V positive, PI negative; for Percent cell population: Dead cells: PI positive, Annexin V negative
Protocol: After overnight incubation, spheroids are treated with inhibitor at concentrations indicated for 72 hours. Spheroids are then trypsinized and combined with floating cells. Cells are washed twice with cold PBS and suspended in binding buffer (0.01 M HEPES, pH 7.4; 0.14 M NaCl; 2.5 mM CaCl2). Cells are then stained with FITC-conjugated Annexin V and PI. Apoptotic cells are quantified on a FACSCalibur™ FACS machine.
Cells were then stained with Annexin V and propidium iodide (PI) and quantitated using FACS (FIG. 11, Table 2). Cell populations staining positive with Annexin V and PI were quantified as late apoptotic, cell populations staining positive with Annexin V but not PI were quantified as early apoptotic, cell populations staining positive for PI but not Annexin V were quantified as dead cells and populations of cells not stained with either Annexin V or PI were considered alive and not apoptotic (Table 2).

[8] = test system: BT474-M3-Aro cells; assay: Aromatase-overexpressing BT474-M3 cell proliferation assay (WST-1); assay type: cell-based; conditions: androstenedione (200 nM) and heregulin (2 nM), three days; ratio 10:20:1 MM-111 to letrozole to lapatinib
Protocol: BT474-M3 cells were transfected with PS100010 vector containing human aromatase (gene accession No: NM_000103.2). Cells with stable expression of aromatase (BT474-M3-Aro) were obtained after selection with 400 μg/ml geneticin. For cell proliferation assay, BT474-M3-Aro cells (5000 cells/well) were plated in phenol red-free RPMI-1640 medium containing 5% charcoal-stripped FBS into 96-well plate. After overnight incubation, indicated treatments were introduced in the presence of androstenedione (A-4; 200 nM) and heregulin (HRG; 2 nM). […] Cell viability in the presence of 5% charcoal-stripped FBS was set as control (100%).
Androstenedione is a steroid hormone that is converted to estrogen by aromatase.

[9] = test system: ErbB3 phosphorylation (pErbB3); assay: Cell signaling assay, pErbB3 ELISA in heregulin-stimulated ZR75-30 cells; assay type: cell-based; conditions: 5 nM heregulin for 10 min, read-out: IC50, reduction of pErbB3 levels
Protocol: as §1, §2

[10] = test system: AKT phosphorylation (pAKT); assay: Cell signaling assay, pAKT ELISA in heregulin-stimulated BT474-M3 cells; assay type: cell-based; conditions: 5 nM heregulin for 10 min, read-out: IC50, reduction of pAKT levels
Protocol: as §1, §2

[11] = test system: AKT phosphorylation (pAKT); assay: Cell signaling assay, pAKT ELISA in heregulin-stimulated ZR75-30 cells; assay type: cell-based; conditions: 5 nM heregulin for 10 min, read-out: IC50, reduction of pAKT levels
Protocol: as §1, §2

[12] = test system: ErbB2 and ErbB3; assay: Affinity of MM-111 antigen-binding sites

Compound	inhibition of spheroid growth (in words) [1]	inhibition of spheroid growth (in words) [2]	inhibition of spheroid growth (in words) [3]	percent change in tumor volume [4] [%]	inhibition of heregulin-activated signaling (pErbB3, pAKT; in words) ([5]; BT474-M3 cells, 5 nM heregulin 10 min versus unstimulated, 1-hour incubation)	inhibition of cell proliferation (viable cells) ([6]; BT474-M3 cells in serum plus 2 nM heregulin)	inhibition of cell proliferation (viable cells) ([6]; unstimulated BT474-M3 cells in serum) [%]	Percent cell population: Live cells ([7]; 72 hours) [%]	Percent cell population: Early apoptosis ([7]; 72 hours) [%]	Percent cell population: Dead cells ([7]; 72 hours) [%]	total apoptotic cells [7]	inhibition of cell growth (in words) [8]	IC50 ([5]; BT474-M3 cells, 5 nM heregulin for 10 min, read-out: IC50, reduction of pErbB3 levels) [nM]	ability to inhibit heregulin-induced ErbB3 activation relative to lapatinib ([5]; incubation 15 minutes up to 24 hours)	IC50 [9] [nM]	IC50 [10] [nM]	IC50 [11] [nM]	Percent cell population: Late apoptosis ([7]; 72 hours, Annexin V and PI positive) [%]	affinity of ErbB2 antigen-binding site relative to ErbB3 antigen-binding site [12]
C[C@]12CC[C@@H]3c4ccc(O)cc4C[C@@H](CCCCCCCCC[S+]([O-])CCCC(F)(F)C(F)(F)F)[C@H]3[C@@H]1CC[C@@H]2O (some centres unmarked) [fulvestrant]	showed inhibitory effects on spheroid growth	did not inhibit heregulin stimulated spheroid growth	inhibited spheroid growth																
CS(=O)(=O)CCNCc1ccc(-c2ccc3ncnc(Nc4ccc(OCc5cccc(F)c5)c(Cl)c4)c3c2)o1 [lapatinib, reference compound]				−11	not an effective inhibitor of heregulin-activated signaling	about 23%	~50	67.9	16.8	0.73	about 31%	did not result in growth inhibition except at high concentrations							
N#Cc1ccc(C(c2ccc(C#N)cc2)n2cncn2)cc1 [letrozole]												did not result in significant inhibition of spheroid cell growth							
MM-111: bispecific anti-ErbB2/anti-ErbB3 antibody, scFv HSA conjugate, amino acid sequence SEQ ID NO:1	showed inhibitory effects on spheroid growth	inhibited heregulin-induced spheroid growth	inhibited spheroid growth; also recorded: greater inhibitory effects than trastuzumab	14				78.9	12.9	0.74	about 20%	inhibited cell proliferation to a similar extent	3	superior to lapatinib by greater than an order of magnitude	5	10	4	7.5	about 30 times
